Consider one substance from patent US4898815A (priority 1983, dated 1990).

This assay relates to intestinal loop of C3H mice. Set-up: species or system C3H mouse. Conditions: mouse, in vivo.

For the substance cholera toxin, the “weight per cm of intestine (milligrams per centimeter of intestine)” value amounted to 126.7 mg.
